According to paper PMC4109680, “Identification and Preclinical Pharmacology of the γ-Secretase Modulator BMS-869780” (International Journal of Alzheimer's Disease, 2014):
Where two headings read alike, the source gives them in different places.

Test: Plasma exposure in rat 4-day oral dosing experiment
Type: in vivo
Settings: for AUC(0-t): read-out: AUC (0–24 h); for concentration at 4 day: oral, read-out: Terminal concentration day 4
Experimental: All experimental procedures with animals followed National Institutes of Health guidelines and were authorized by and in compliance with policies of the Bristol-Myers Squibb Animal Use and Care Committee. Mice and rats were housed with a 6:00 AM to 6:00 PM light/dark cycle and allowed free access to food and water. For 3xTg mice, BMS-869780 was dosed in three-month-old females by oral gavage at 6 mL/kg in vehicle consisting of 84% polyethylene glycol average molecular weight of 400 (PEG-400), 15% EtOH, and 1% Tween-80 (w/w/w). The compound was dissolved in EtOH and then diluted with PEG-400 and Tween, after which the vial was sealed, vortexed, and sonicated at 56°C for 1 hour. Animals were euthanized by asphyxiation in CO2. Blood was collected by cardiac puncture and placed into ethylene-diaminetetraacetic acid microtainer tubes for the preparation of plasma. The cerebellum was collected for the determination of compound concentration, and the remaining brain was separated into left and right halves before freezing in liquid nitrogen. For the rat time course study, 8- to 12-week-old female Sprague-Dawley rats were obtained from Charles River Laboratories (Wilmington, MA), BMS-869780 was dosed orally at 4 mL/kg, and brain and plasma samples were collected as described for the 3xTg mice. For the four day repeat dose rat study, BMS-869780 was given by oral gavage in vehicle consisting of PEG-400, PEG-200, D-α-tocopheryl polyethylene glycol succinate, Solutol HS 15, in the ratio 80 : 10 : 5 : 5 (w/w/w/w). Methods for the pharmacokinetics studies in rat, dog, and monkey are described below.
As a preliminary evaluation of safety in vivo, male and female rats were given 10, 30, and 100 mg/kg BMS-869780 orally once daily for 4 days. Endpoints included brain Aβ1-42, as described above (Figures 7(d) and 7(e)), plasma PK on day 1 and day 3 (Table 4), and histopathology for duodenum, liver, and kidney.

[1] = female, rat, plasma, po, 10 mg/kg, Female, Day 1
[2] = female, rat, plasma, po, 10 mg/kg, Female, Day 3
[3] = female, rat, plasma, po, 30 mg/kg, Female, Day 1
[4] = female, rat, plasma, po, 30 mg/kg, Female, Day 3
[5] = female, rat, plasma, po, 100 mg/kg, Female, Day 1
[6] = female, rat, plasma, po, 100 mg/kg, Female, Day 3
[7] = male, rat, plasma, po, 10 mg/kg, Male, Day 1
[8] = male, rat, plasma, po, 10 mg/kg, Male, Day 3
[9] = male, rat, plasma, po, 30 mg/kg, Male, Day 1
[10] = male, rat, plasma, po, 30 mg/kg, Male, Day 3
[11] = male, rat, plasma, po, 100 mg/kg, Male, Day 1
[12] = male, rat, plasma, po, 100 mg/kg, Male, Day 3

For COc1cc(Nc2nc3n(n2)CCCC[C@H]3c2ccc(F)cc2)ccc1-n1cnc(Cl)c1 [BMS-869780], the “Terminal concentration day 4” value (100 mg/kg, Female) was 13.7 (±0.9) μM, the “AUC (0–24 h)” value (100 mg/kg, Female, Day 3) was 316.4 (±77.0) μM·h and the “Terminal concentration day 4” value (100 mg/kg, Male) was 9.2 (±3.2) μM. For the same compound, the “change of exposure on repeat dosing” value (day 1 versus day 3) was “no loss of exposure between day 1 and day 3”, the Cmax [1] was 2.9 µM and the Tmax [1] was 7 h. It also gave an AUC(0-t) [1] of 41 µM·h, a Cmax [2] of 2.6 µM and a Tmax [2] of 5 h. For the same compound, the AUC(0-t) [2] was 25 µM·h, the Cmax [3] was 8.2 µM and the Tmax [3] was 5 h. For the same compound, the AUC(0-t) [3] was 152 µM·h, the Cmax [4] was 14.4 µM and the Tmax [4] was 3 h. It also gave an AUC(0-t) [4] of 255 µM·h, a Cmax [5] of 10.6 µM and a Tmax [5] of 24 h. For the same compound, the AUC(0-t) [5] was 206 µM·h, the Cmax [6] was 15.5 µM and the Tmax [6] was 4 h. It also gave an AUC(0-t) [6] of 316 µM·h, an exposures achieved (highest dose of 100 mg/kg) greater than 200 µM·h and a Cmax [7] of 2 µM. For the same compound, the Tmax [7] was 5 h, the AUC(0-t) [7] was 20.2 µM·h and the Cmax [8] was 1.9 µM. The Tmax [8] was 5 h, the AUC(0-t) [8] was 17.5 µM·h and the Cmax [9] was 6.1 µM. The Tmax [9] was 8 h, the AUC(0-t) [9] was 95.2 µM·h and the Cmax [10] was 10.4 µM. The Tmax [10] was 3 h, the AUC(0-t) [10] was 129 µM·h and the Cmax [11] was 7.7 µM. The Tmax [11] was 19 h, the AUC(0-t) [11] was 168 µM·h and the Cmax [12] was 13.2 µM. For the same compound, the Tmax [12] was 7 h, the AUC(0-t) [12] was 217 µM·h and the concentration at 4 day (rat, plasma, 10 mg/kg, Female) was 3 µM. For the same compound, the concentration at 4 day (rat, plasma, 10 mg/kg, Male) was 2.4 µM, the concentration at 4 day (rat, plasma, 30 mg/kg, Female) was 12 µM and the concentration at 4 day (rat, plasma, 30 mg/kg, Male) was 8.9 µM. It also gave an AUC (rat, plasma, po, four daily doses of 10 mg/kg) of 17.5 µM·h.
